Earlier results in patent US20110151028A1, “Topical vaginal preparation” (priority 2009, published 2011).

Conditions: carrier: standard hydrophilic transdermal carrier, propylene glycol

systemic absorption of transdermally delivered erythromycin: rapid systemic absorption
Compound: CC[C@H]1OC(=O)[C@H](C)[C@@H](O[C@H]2C[C@@](C)(OC)[C@@H](O)[C@H](C)O2)[C@H](C)[C@@H](O[C@@H]2O[C@H](C)C[C@H](N(C)C)[C@H]2O)[C@](C)(O)C[C@@H](C)C(=O)[C@H](C)[C@@H](O)[C@]1(C)O [erythromycin]
